Assay results taken from PubChem BioAssay (NCI).
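Results reflect a 48-hour exposure of cells in 96-well plates to compound at five concentrations. Here, GI50 denotes the concentration required for 50% inhibition of growth. The concentration for full growth arrest is given as TGI.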

Tests used:
Assay in all cases: growth of human tumour cells (NCI), 48 h
[1] = tested on: A549 NSCLC
[2] = tested on: CAKI-1 renal
[3] = tested on: HOP-92 NSCLC
[4] = tested on: IGROV1 ovarian
[5] = tested on: K-562 leukemia
[6] = tested on: KM12 colon
[7] = tested on: MOLT-4 leukemia
[8] = tested on: NCI/ADR-RES ovarian
[9] = tested on: PC-3 prostate
[10] = tested on: MDA-MB-435

| SMILES | TGI [1] [µM] | TGI [2] [µM] | TGI [3] [µM] | TGI [4] [µM] | TGI [5] [µM] | TGI [6] [µM] | TGI [7] [µM] | TGI [8] [µM] | TGI [9] [µM] | TGI [10] [µM] | GI50 [1] [µM] | GI50 [2] [µM] | GI50 [3] [µM] | GI50 [4] [µM] | GI50 [5] [µM] | GI50 [7] [µM] | GI50 [8] [µM] | GI50 [9] [µM] | GI50 [6] [µM] | GI50 [10] [µM] |
| --- | --- | --- | --- | --- | --- | --- | --- | --- | --- | --- | --- | --- | --- | --- | --- | --- | --- | --- | --- | --- |
| Cc1cc2c(=O)c3ccccc3oc2c(C#N)c1C | > 100 | > 100 | > 100 | > 100 | > 100 | > 100 | > 100 | > 100 | > 100 | – | – | – | – | – | – | – | – | – | – | – |
| CCOC(=O)/C(=C/c1ccc(Cl)cc1)N(CC)CC | > 100 | > 100 | > 100 | > 100 | > 100 | > 100 | > 100 | – | – | – | – | – | – | – | – | – | – | – | – | – |
| O=C(O)C1CCCCC1C(=O)Nc1nc2ccccc2[nH]1 (stereo not given) | > 100 | > 100 | > 100 | > 100 | – | > 100 | > 100 | > 100 | > 100 | > 100 | – | – | – | – | – | – | – | – | – | – |
| COc1ccc(C(=O)c2cc(OC)c(OC)c(OC)c2)cc1/C=C/C(=O)c1ccc2c(c1)OCO2 | > 100 | > 100 | 35.4 | 14.1 | > 100 | – | > 100 | 15.2 | > 100 | – | 4.39 | 2.56 | 12 | 3.52 | 0.377 | 1.61 | 1.46 | 4.1 | – | – |
| Cc1ccc(C(O)/C(=N/N)c2nc3ccc([N+](=O)[O-])cc3[nH]c2=O)cc1 (stereo not given) | > 100 | – | > 100 | > 100 | > 100 | > 100 | > 100 | – | – | – | – | – | – | – | – | – | – | – | – | – |
| CNc1ccc(C(=O)CC(O)CCC(C)C2OC(=O)CC(O)CC(=O)CC(O)CC(O)CC(O)CC(O)CC3(O)CC(O)C(C(=O)NCCc4ccccn4)C(CC(OC4OC(C)C(O)C(N)C4O)/C=C/C=C/C=C/C=C\C=C/C=C/C=C/C2C)O3)cc1 (stereo not given) | – | 0.633 | 19.2 | > 50 | > 20.5 | > 18.9 | > 50 | – | > 11.6 | 0.406 | – | 0.165 | 1.48 | – | 2.43 | 0.207 | – | 0.336 | 3.6 | 0.128 |
| Nc1nc(Cl)nc2c1ncn2C1CCC(COP(=O)(O)OP(=O)(O)OP(=O)(O)O)O1 (stereo not given) | 78.8 | > 100 | 66.6 | > 100 | – | > 100 | > 100 | 55.8 | 64.3 | 58.1 | – | – | – | – | – | – | – | – | – | – |
| COc1cccc(N2C(=O)[C@H]3[C@H]4CC(C(C)(C)C)CC[C@H]4c4c([nH]c5ccccc45)[C@H]3C2=O)c1 (stereo not given in full) | 29 | 32.3 | – | 39.1 | 29 | > 100 | 25.1 | – | – | – | – | – | – | – | – | – | – | – | – | – |
| C[C@]12CC/C(=N\OC(=O)Nc3ccccc3)C=C1CC[C@@H]1C2CC[C@@]2(C)C1CC[C@@H]2OC(=O)Nc1ccccc1 (stereo not given in full) | > 100 | 19.8 | > 100 | > 100 | > 100 | > 100 | > 100 | – | – | – | – | – | – | – | – | – | – | – | – | – |
| COc1cc(CCNc2nc3cc(N)cc(N)c3nc2-c2ccccc2)cc(OC)c1 | 14.9 | 3.6 | 3.44 | 7.98 | 4.25 | 3.54 | 2.67 | 6.3 | – | 3.5 | 3.64 | 1.93 | 1.61 | 2.52 | 1.73 | 0.941 | 2.61 | – | 1.69 | 1.77 |
| COC(=O)C1=C(C)N(NC(=O)c2cccc(Cl)c2)C(C)(O)C12CCOC2=O (stereo not given) | > 100 | > 100 | – | > 100 | > 100 | > 100 | > 100 | – | – | – | – | – | – | – | – | – | – | – | – | – |
| NC(=O)OCC(COc1ccc(Cl)cc1)OC(=O)c1cc([N+](=O)[O-])cc([N+](=O)[O-])c1 (stereo not given) | > 100 | > 100 | > 100 | > 100 | > 100 | > 100 | > 100 | – | – | – | – | – | – | – | – | – | – | – | – | – |
| CS(=O)(=O)c1ccc(-c2[nH]c3ccc(F)cc3c2/C=N/NC(N)=S)cc1 | > 100 | > 100 | 52.9 | > 100 | 41.2 | 28.8 | 24 | > 100 | 26.8 | – | 2.86 | 3.86 | 0.574 | 4.95 | 0.532 | 0.981 | 1.17 | 0.51 | 0.73 | – |
| O=C(NCCCCCCNC(=O)NC1OCC(O)C(O)C1O)NC1OCC(O)C(O)C1O (stereo not given) | > 100 | > 100 | > 100 | > 100 | > 100 | > 100 | > 100 | – | – | – | – | – | – | – | – | – | – | – | – | – |
| Cc1ccc(S(=O)(=O)NC(=O)C#CCOC2CCCCO2)cc1 (stereo not given) | > 100 | > 100 | > 100 | – | > 100 | – | > 100 | – | – | – | – | – | – | – | – | – | – | – | – | – |
| CCC[CH2][Ge]([CH2]CCC)([CH2]CCC)[O]C(=O)C(OC(C)=O)c1ccccc1 (stereo not given) | 30.9 | 47.4 | 12.3 | 25.8 | > 34 | 22.1 | > 100 | – | – | – | 3.37 | 13.7 | 0.438 | 11.2 | 0.202 | 0.153 | – | – | 2.98 | – |
| CCCCCCCCCCCCCC(=O)OC1C(CO)OC(=O)C1O (stereo not given) | > 100 | > 100 | 95.9 | > 100 | > 100 | > 100 | > 100 | – | – | – | – | – | – | – | – | – | – | – | – | – |
| N#C/C(=C\c1ccc([N+](=O)[O-])s1)c1nc2cc(Br)ccc2s1 | > 100 | 1.01 | 0.451 | 1.14 | > 40.6 | 2.47 | > 35.5 | 0.827 | 2.54 | – | 0.509 | 0.218 | 0.175 | 0.254 | 0.0561 | 0.335 | 0.276 | 0.435 | 0.399 | – |
| Cc1cc(O)c(O)c(Oc2cc(C)cc(O)c2O)c1 | > 100 | > 100 | 41.1 | 69.6 | > 100 | > 100 | > 100 | – | > 100 | > 100 | – | – | – | – | – | – | – | – | – | – |
| N#CC(C(=O)C(=O)Nc1ccc(Cl)c(Cl)c1)c1ccc(Cl)cc1 (stereo not given) | > 100 | > 100 | 99.2 | > 100 | 60.1 | > 100 | > 100 | – | – | – | – | – | – | – | – | – | – | – | – | – |
